Entries after “also recorded” stand apart in the source; their conditions may differ. Each block holds one molecule with its values, some of them ahead of it. *1 amine or outer side, *2 acyl side, *3 side chain or, on linkers, in order; H or OH if unused. Where a SMILES comes first, the peptide text is derived from it. Bridges are numbered along the chain shown (N, C = ends). CH2CH2 = C(C[*:2])[*:1]
Assays:
GST-Shh [1] = target: T1, GST-Shh (Homo sapiens, UniProt Q15465); experiment: KD (nM)
T1 construct: poly-histidine (N); made in house; host or cells: E. coli BL21(DE3), vector pET42b
Source text: Table printed on a drawing sheet, FIG. 9
Head of the field: KD (nM)
The patent's description of the figure: FIG. 9. Shh binding affinity of X5-X8-linked cyclic peptides.
First copying reader's note: The error (±) is printed in the same cell as the KD value.
Where the first naming reader finds the target: description_of_the_figure: direct binding of the selected FLAG tag-fused peptides to plate-immobilized GST-Shh
Target sequence in this assay (Q15465 24-197 limits assumed): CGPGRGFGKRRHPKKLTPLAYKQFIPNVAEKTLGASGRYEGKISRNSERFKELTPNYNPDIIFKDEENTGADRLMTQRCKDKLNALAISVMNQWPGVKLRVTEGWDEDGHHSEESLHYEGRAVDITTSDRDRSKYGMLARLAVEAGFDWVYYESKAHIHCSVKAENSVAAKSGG

GST-Shh [2] = target: T1, GST-Shh; experiment: Hh protein binding immunoassay: FLAG-tagged peptide on plate-immobilized GST-Shh, HRP-conjugated anti-FLAG antibody
Source text: As for any peptide/protein interaction, various analytical and biophysical methods can be applied to test and assess the ability of the compounds provided herein to bind to Hedgehog proteins. These methods include, but are not limited to immunoassays (e.g., ELISA), radio(immune)assays, fluorescence-based assays, colorimetric assays, and/or techniques such as surface plasmon resonance (SPR), FRET, fluorescence polarization, isothermal calorimetry, NMR, and the like. A method that can be used is a solid phase immunoassay, in which the Hedgehog protein is immobilized on a plate or test tube and then incubated with the peptide at a fixed or variable concentration. In this assay, the peptide is functionalized with a label in the form of an antibody epitope (e.g., ‘FLAG tag’ peptide sequence) or an affinity tag molecule (e.g., biotin). After washing the unbound peptide, the Hedgehog-bound peptide is detected and quantified by means of a colorimetric assay using an enzyme-conjugated antibody (e.g., horseradish peroxidase-conjugated anti-FLAG antibody) or enzyme-conjugated capture protein (e.g., horseradish peroxidase-conjugated streptavidin). […]
To measure the binding affinity of the peptides for Shh, an in vitro assay was established in which recombinant GST-fused Shh is immobilized on microtiter plates and then exposed to the FLAG-tagged peptide at varying concentrations. The Shh-bound peptide is then quantified colorimetrically (λ450) using a horseradish peroxidase (HRP)-conjugated anti-FLAG antibody. […]
Hh protein binding assay. Shh binding activity/affinity of the linear and cyclic peptides was measured using the immunoassay outlined in FIG. 4. […] After washing, 100 μL of 2.2 mM o-phenylenediamine dihydrochloride, 4.2 mM urea hydrogen peroxide, 100 mM dibasic sodium phosphate and 50 mM sodium citrate, pH 5.0 was added to each well, followed by measurement of the absorbance at 450 nm using a Tecan Infinite 1000 plate reader. […]
Target sequence in this assay (Q15465 24-462): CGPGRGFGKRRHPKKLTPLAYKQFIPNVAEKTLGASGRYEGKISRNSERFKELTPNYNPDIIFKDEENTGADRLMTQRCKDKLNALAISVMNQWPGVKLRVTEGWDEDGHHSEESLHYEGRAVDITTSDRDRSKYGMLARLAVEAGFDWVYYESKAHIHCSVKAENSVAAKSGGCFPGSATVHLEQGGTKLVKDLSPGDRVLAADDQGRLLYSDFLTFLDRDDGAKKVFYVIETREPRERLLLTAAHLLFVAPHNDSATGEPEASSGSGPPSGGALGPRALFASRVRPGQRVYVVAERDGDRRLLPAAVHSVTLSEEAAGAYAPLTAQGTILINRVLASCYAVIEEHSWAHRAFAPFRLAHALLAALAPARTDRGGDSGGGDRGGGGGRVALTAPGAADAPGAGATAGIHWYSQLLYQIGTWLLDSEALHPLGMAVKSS

[3] = tested on: Shh-mediated Hedgehog pathway signaling in NIH3T3 cells; experiment: Gli-reporter dual luciferase assay in Shh-N-stimulated NIH-3T3 cells; format: cell-based, mouse
Source text: The ability of the compounds provided herein to inhibit ligand-induced activation of the Hedgehog pathway in a cell can be assessed by means of a cell based assay. In an exemplary procedure, a suitable reporter plasmid is introduced in a Hedgehog responsive mammalian cell. Typically, the reporter plasmid contains a reporter gene encoding (e.g., a gene encoding for firefly luciferase) under a Gli-controlled promoter, thereby providing a reporter gene that is responsive to the activity of the Gli transcription factors. […] The reporter cells are incubated with the Hedgehog protein in the presence and in the absence of the cyclic peptide. The extent of Hedgehog pathway suppression can be determined based on relative activity of the luciferase reporter enzyme, which in turn can be determined by measuring the luminescence signal after addition of a luminogenic substrate of the luciferase enzyme.
To this end, we utilized a cell-based luciferase reporter assay, (Chen, Taipale et al. 2002) in which mouse embryo fibroblasts (NIH3T3) are transfected with vectors encoding for a Firefly luciferase (FF) gene under a Gli-controlled promoter and a Renilla luciferase (Ren) gene under a constitutive promoter. Hedgehog pathway suppression is measured based on the decrease in Firefly/Renilla luminescence ratio in the presence of the inhibitor. […] (Chen, Taipale et al. 2002)
Gli-reporter Assay. NIH-3T3 cells were passaged twice and then plated in 24-well culture dishes at 5×10^5 cells/well in DMEM containing 10% FBS and 1% penicillin/streptomycin. After 24 hours, the cells were transfected (TransIT-2020) with a mixture of a firefly luciferase reporter construct under the control of a Gli1 inducible promoter and a Renilla luciferase reporter construct under a constitutive promoter (40:1) (Cignal GLI Reporter Luciferase Kit, Qiagen). Cells were allowed to reach confluency, at which point the media was changed to Opti-MEM containing 1% FBS and added with 4 nM Shh-N(R&D Systems, Minneapolis, Minn.) in sterile PBS buffer. Synthetic HL2-lin and HL2-m5 were added at the same time at varying concentration (0.01-30 uM), and control cells were prepared by adding vehicle only (1% DMSO). Purmorphamine-treated cells were prepared by adding 5 μM purmorphamine to wells containing 10 μM HL2-m5. After growth for 24 hours at 37° C. in a humidified chamber, the cells were harvested and analyzed for Firefly and Renilla luciferase activity using a Tecan Spark-20 plate reader and a DLR kit (Promega) according to the manufacturer's instructions. Luminescence values were normalized to those of the Shh pathway activated control cells. Mean values and standard deviations were calculated from experiments performed at least in duplicate.

[4] = tested on: GST-Shh, GST-Ihh, and GST-Dhh; experiment: Hedgehog analog selectivity: relative binding at fixed peptide concentration; parameters: species or system human; settings: peptide at fixed concentration of 0.5-1 μM, normalized to highest response
Method: FIG. 14. Hh analog selectivity for linear HHIP L2-derived peptide (HL2-pep) and representative cyclic peptide inhibitors. The data relative to the peptides were derived from direct binding experiments with immobilized Hedgehog proteins (i.e., GST-Shh, GST-Ihh, and GST-Dhh), biotinylated peptides (i.e., Biot-HL2-pep, Biot-HL2-m1, Biot-HL2-m2, Biot-HL2-m3, Biot-HL2-m4, Biot-HL2-m4), and HRP-conjugated streptavidin. The data relative to robotnikinin were derived from competition experiments ([…]+400 nM HL2-m5). For each compound, the response values were normalized to the highest binding response measured across the three Hedgehog analogs.
Hedgehog analog selectivity. KD values for FLAG-HL2-m5 binding to Ihh and Dhh were determined using the colorimetric immunoassay described earlier but using GST-Ihh and GST-Dhh-coated plates, respectively. The peptide relative binding affinity for the three isoforms of Hedgehog was determined using the same assay and peptide solutions at a fixed concentration of 0.5-1 μM. In this case, binding responses were subtracted against the blank (no peptide sample) and normalized to the highest value measured across the three Hh isoforms. Mean values and standard deviations were calculated from experiments performed at least in triplicate.

Kd (GST-Shh [1]): 560 ± 5 nM
Molecule: CSCC[C@H](N)C(=O)N[C@@H](CC(=O)O)C(=O)N[C@@H](Cc1ccc(O)cc1)C(=O)N[C@@H](CCCCN)C(=O)N[C@@H](CC(=O)O)C(=O)N[C@@H](CC(=O)O)C(=O)N[C@@H](CC(=O)O)C(=O)N[C@@H](CC(=O)O)C(=O)N[C@@H](CCCCN)C(=O)NCC(=O)N[C@@H](CO)C(=O)NCC(=O)N[C@@H](CO)C(=O)N[C@H](C(=O)N[C@H](C(=O)N[C@@H](CO)C(=O)N[C@@H](CC(=O)O)C(=O)NCC(=O)N[C@@H](CCC(=O)O)C(=O)N[C@@H](CCC(=O)O)C(=O)N[C@H]1Cc2ccc(cc2)OCCSC[C@@H](C(=O)N[C@@H](CC(C)C)C(=O)N[C@@H](CC(=O)O)C(=O)O)NC(=O)CNC(=O)[C@H](CC(=O)O)NC1=O)C(C)C)[C@@H](C)O [FLAG-HL2-2m1.1] (H-MDYKDDDDKGSGSTVSDGEEYDGCLD-OH; linker 21-24 via CH2CH2; N-terminus assumed)

Kd (GST-Shh [1]): 850 ± 20 nM
Molecule: CSCC[C@H](N)C(=O)N[C@@H](CC(=O)O)C(=O)N[C@@H](Cc1ccc(O)cc1)C(=O)N[C@@H](CCCCN)C(=O)N[C@@H](CC(=O)O)C(=O)N[C@@H](CC(=O)O)C(=O)N[C@@H](CC(=O)O)C(=O)N[C@@H](CC(=O)O)C(=O)N[C@@H](CCCCN)C(=O)NCC(=O)N[C@@H](CO)C(=O)NCC(=O)N[C@@H](CO)C(=O)N[C@H](C(=O)N[C@@H](CCCNC(=N)N)C(=O)NCC(=O)N[C@@H](CC(=O)O)C(=O)NCC(=O)N[C@@H](CCC(=O)O)C(=O)N[C@@H](CCC(=O)O)C(=O)N[C@H]1Cc2ccc(cc2)OCCSC[C@@H](C(=O)N[C@H](C(=O)N[C@@H](CC(=O)O)C(=O)O)C(C)C)NC(=O)CNC(=O)[C@H](CC(=O)O)NC1=O)[C@@H](C)O [FLAG-HL2-2m1.2] (H-MDYKDDDDKGSGSTRGDGEEYDGCVD-OH; linker 21-24 via CH2CH2; N-terminus assumed)

Molecule: CSCC[C@@H]1NC(=O)[C@H](CCC(=O)O)NC(=O)[C@H](CCC(=O)O)NC(=O)[C@@H](NC(=O)[C@H](CC(=O)O)NC(=O)[C@H](CC(=O)O)NC(=O)[C@H](CC(C)C)NC(=O)[C@@H](NC(=O)[C@H](CO)NC(=O)CNC(=O)[C@H](CO)NC(=O)CNC(=O)[C@H](CCCCN)NC(=O)[C@H](CC(=O)O)NC(=O)[C@H](CC(=O)O)NC(=O)[C@H](CC(=O)O)NC(=O)[C@H](CC(=O)O)NC(=O)[C@H](CCCCN)NC(=O)[C@H](Cc2ccc(O)cc2)NC(=O)[C@H](CC(=O)O)NC(=O)[C@@H](N)CCSC)[C@@H](C)O)Cc2ccc(cc2)OCCSC[C@@H](C(=O)N[C@@H](CO)C(=O)N[C@@H](CC(=O)O)C(=O)O)NC(=O)CNC(=O)[C@H](CC(=O)O)NC1=O [FLAG-HL2-m1] (H-MDYKDDDDKGSGSTLDDYEEMDGCSD-OH; linker 18-24 via CH2CH2; N-terminus assumed)
increase in Shh binding affinity compared to FLAG-HL2-m1 (GST-Shh [2]; ratio of KD values): 11 fold

Molecule: CSCC[C@@H]1NC(=O)[C@H](C)NC(=O)[C@H](CCC(=O)O)NC(=O)[C@@H](NC(=O)[C@H](Cc2c[nH]c3ccccc23)NC(=O)[C@H](CO)NC(=O)[C@H](CC(C)C)NC(=O)[C@@H](NC(=O)[C@H](CO)NC(=O)CNC(=O)[C@H](CO)NC(=O)CNC(=O)[C@H](CCCCN)NC(=O)[C@H](CC(=O)O)NC(=O)[C@H](CC(=O)O)NC(=O)[C@H](CC(=O)O)NC(=O)[C@H](CC(=O)O)NC(=O)[C@H](CCCCN)NC(=O)[C@H](Cc2ccc(O)cc2)NC(=O)[C@H](CC(=O)O)NC(=O)[C@@H](N)CCSC)[C@@H](C)O)Cc2ccc(cc2)OCCSC[C@@H](C(=O)N[C@H](C(=O)N[C@@H](CC(=O)O)C(=O)O)[C@@H](C)O)NC(=O)[C@H](CCSC)NC(=O)[C@H](CC(=O)O)NC1=O [FLAG-HL2-m5] (H-MDYKDDDDKGSGSTLSWYEAMDMCTD-OH; linker 18-24 via CH2CH2)
Kd (GST-Shh [2]): 170 nM | higher binding affinity for Shh compared to the linear L2-derived peptide (FLAG-HL2-pep) (GST-Shh [2]; ratio of KD values): ~120 fold

Molecule: CC1=C2C[C@H]3[C@@H](CC=C4C[C@@H](O)CC[C@@]43C)[C@@H]2CC[C@]12O[C@@H]1C[C@H](C)CN[C@H]1[C@H]2C [cyclopamine]
inhibition of Shh-induced luminescence ([3]; concentration of 10 μM): full inhibition

Molecule: c1ccc2c(Oc3nc(Nc4ccc(N5CCOCC5)cc4)c4ncn(C5CCCCC5)c4n3)cccc2c1 [purmorphamine]
effect of Smo agonist on pathway signaling in HL-m5-treated cells ([3]; 5 μM purmorphamine added to 10 μM HL2-m5): restored activation of the signaling pathway

Molecule: HL2-pep: linear peptide derived from the HHIP L2 loop (TLDDMEEMDGLSD)
Hedgehog analog selectivity profile [4]: Dhh>Shh≈Ihh | inhibitory activity on Hedgehog pathway signaling (in words) ([3]; concentrations up to 30 μM, Shh-N-stimulated cells): no inhibitory activity; also recorded: unable to suppress signaling
